Measured values as given in patent US10815230B2, “Casein kinase 1 delta inhibitor” (ELECTROPHORETICS LIMITED, priority 2015, dated 2020).
pIC50: −log10 of the molar value.

Experiments:
Type in all cases: biochemical
[1] = target: CK1d (casein kinase 1 delta) (Homo sapiens, UniProt P48730); assay: Kinase selectivity, % remaining activity and IC50; conditions: 10 μM ATP
Protocol: (§1) A two-tier strategy to determine the selectivity of compound A was applied: first, the compound was tested at a single concentration (in duplicate) to determine the %-remaining activity of the target kinase. Subsequently, the IC50 of compound A and comparative compounds for casein kinase 1 delta were determined.
(§2) Compounds were tested in single dose duplicate mode at a concentration of 10 μM (in DMSO) and reactions were carried out at 10 μM ATP, Table 3 reports the % of remaining activity (relative to DMSO).
Control compound GW5074 (Tocris®) was tested starting at 20 μM. Reactions were carried out at 10 μM ATP.

GSK3B = GSK3B (Homo sapiens, UniProt P49841); assay: Kinase selectivity, % remaining activity; conditions: 10 μM compound, 10 μM ATP, duplicate
Protocol: as §1, §2

YES/YES1 = YES/YES1 (Homo sapiens, UniProt P07947); assay: Kinase selectivity, % remaining activity; conditions: 10 μM compound, 10 μM ATP, duplicate
Protocol: as §1, §2

MSK1/RPS6KA5 = MSK1/RPS6KA5 (Homo sapiens, UniProt O75582); assay: Kinase selectivity, % remaining activity; conditions: 10 μM compound, 10 μM ATP, duplicate
Protocol: as §1, §2

KDR/VEGFR2 = KDR/VEGFR2 (Homo sapiens, UniProt P35968); assay: Kinase selectivity, % remaining activity; conditions: 10 μM compound, 10 μM ATP, duplicate
Protocol: as §1, §2

PDK1/PDPK1 = target: T1, PDK1/PDPK1 (Homo sapiens, UniProt O15530); assay: Kinase selectivity, % remaining activity; conditions: 10 μM compound, 10 μM ATP, duplicate
T1 sequence (O15530 1-556): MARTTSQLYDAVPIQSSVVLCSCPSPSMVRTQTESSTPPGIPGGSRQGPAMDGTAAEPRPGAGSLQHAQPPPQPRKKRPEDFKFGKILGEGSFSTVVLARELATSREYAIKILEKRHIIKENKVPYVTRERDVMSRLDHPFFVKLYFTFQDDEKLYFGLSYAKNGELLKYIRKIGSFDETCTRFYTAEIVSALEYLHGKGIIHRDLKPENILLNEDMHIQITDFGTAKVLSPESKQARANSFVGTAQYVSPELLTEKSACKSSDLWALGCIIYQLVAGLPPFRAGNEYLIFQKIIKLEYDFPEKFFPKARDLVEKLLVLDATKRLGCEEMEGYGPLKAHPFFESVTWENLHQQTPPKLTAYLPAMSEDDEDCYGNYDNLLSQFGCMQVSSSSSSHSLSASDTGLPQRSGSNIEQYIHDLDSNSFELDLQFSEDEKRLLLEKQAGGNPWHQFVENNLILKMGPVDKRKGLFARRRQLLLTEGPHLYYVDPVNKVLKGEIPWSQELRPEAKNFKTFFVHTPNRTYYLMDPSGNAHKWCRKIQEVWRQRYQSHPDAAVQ
Protocol: as §1, §2

EPHA2 = EPHA2 (Homo sapiens, UniProt P29317); assay: Kinase selectivity, % remaining activity; conditions: 10 μM compound, 10 μM ATP, duplicate
Protocol: as §1, §2

ABL2/ARG = ABL2/ARG (Homo sapiens, UniProt P42684); assay: Kinase selectivity, % remaining activity; conditions: 10 μM compound, 10 μM ATP, duplicate
Protocol: as §1, §2

TNIK = TNIK (Homo sapiens, UniProt Q9UKE5); assay: Kinase selectivity, % remaining activity; conditions: 10 μM compound, 10 μM ATP, duplicate
Protocol: as §1, §2

FGFR1 = FGFR1 (Homo sapiens, UniProt P11362); assay: Kinase selectivity, % remaining activity; conditions: 10 μM compound, 10 μM ATP, duplicate
Protocol: as §1, §2

JNK2 = JNK2 (Homo sapiens, UniProt P45984); assay: Kinase selectivity, % remaining activity; conditions: 10 μM compound, 10 μM ATP, duplicate
Protocol: as §1, §2

EGFR = EGFR (Homo sapiens, UniProt P00533); assay: Kinase selectivity, % remaining activity; conditions: 10 μM compound, 10 μM ATP, duplicate
Protocol: as §1, §2

ALK5/TGFBR1 = target: T2, ALK5/TGFBR1 (Homo sapiens, UniProt P36897); assay: Kinase selectivity, % remaining activity; conditions: 10 μM compound, 10 μM ATP, duplicate
T2 sequence (P36897 34-503): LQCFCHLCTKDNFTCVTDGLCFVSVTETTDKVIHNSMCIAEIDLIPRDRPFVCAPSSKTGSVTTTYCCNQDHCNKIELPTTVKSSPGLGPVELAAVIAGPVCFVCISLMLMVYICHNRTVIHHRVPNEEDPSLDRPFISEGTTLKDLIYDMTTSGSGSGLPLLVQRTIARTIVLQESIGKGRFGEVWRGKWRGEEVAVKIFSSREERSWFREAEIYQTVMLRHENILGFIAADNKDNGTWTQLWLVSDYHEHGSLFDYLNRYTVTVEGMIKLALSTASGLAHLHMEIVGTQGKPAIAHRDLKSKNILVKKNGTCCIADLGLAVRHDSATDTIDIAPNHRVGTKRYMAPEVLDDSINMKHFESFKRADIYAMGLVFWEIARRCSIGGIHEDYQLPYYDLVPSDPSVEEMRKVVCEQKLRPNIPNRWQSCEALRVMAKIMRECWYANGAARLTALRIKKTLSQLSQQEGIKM
Protocol: as §1, §2

PKA = PKA (Homo sapiens, UniProt P17612); assay: Kinase selectivity, % remaining activity; conditions: 10 μM compound, 10 μM ATP, duplicate
Protocol: as §1, §2

RIPK2 = RIPK2 (Homo sapiens, UniProt O43353); assay: Kinase selectivity, % remaining activity; conditions: 10 μM compound, 10 μM ATP, duplicate
Protocol: as §1, §2

CLK2 = CLK2 (Homo sapiens, UniProt P49760); assay: Kinase selectivity, % remaining activity; conditions: 10 μM compound, 10 μM ATP, duplicate
Protocol: as §1, §2

PIM3 = PIM3 (Homo sapiens, UniProt Q86V86); assay: Kinase selectivity, % remaining activity; conditions: 10 μM compound, 10 μM ATP, duplicate
Protocol: as §1, §2

CDK5/p25 = CDK5/p25 (Homo sapiens, UniProt Q00535); assay: Kinase selectivity, % remaining activity; conditions: 10 μM compound, 10 μM ATP, duplicate
Protocol: as §1, §2

CK1g3 = CK1g3 (Homo sapiens, UniProt Q9Y6M4); assay: Kinase selectivity, % remaining activity; conditions: 10 μM compound, 10 μM ATP, duplicate
Protocol: as §1, §2

CK1a1 = CK1a1 (Homo sapiens, UniProt P48729); assay: Kinase selectivity, % remaining activity; conditions: CK1a1, 10 μM compound, 10 μM ATP, duplicate
Protocol: as §2

[2] = read-out: % of remaining activity (relative to DMSO)

Chain of CK1d (casein kinase 1 delta) (P48730 whole entry): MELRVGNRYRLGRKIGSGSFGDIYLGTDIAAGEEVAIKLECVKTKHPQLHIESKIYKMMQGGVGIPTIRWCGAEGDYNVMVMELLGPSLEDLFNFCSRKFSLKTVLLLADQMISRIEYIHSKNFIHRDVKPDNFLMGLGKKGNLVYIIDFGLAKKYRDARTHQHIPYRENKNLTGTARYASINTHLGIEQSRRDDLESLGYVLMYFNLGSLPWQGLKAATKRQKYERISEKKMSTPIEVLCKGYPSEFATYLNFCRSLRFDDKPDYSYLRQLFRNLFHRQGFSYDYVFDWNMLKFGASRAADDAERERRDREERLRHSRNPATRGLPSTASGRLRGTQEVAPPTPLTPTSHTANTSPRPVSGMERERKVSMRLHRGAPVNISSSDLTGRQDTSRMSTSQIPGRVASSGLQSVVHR
Chain of CDK5/p25 (Q00535 whole entry, species assumed): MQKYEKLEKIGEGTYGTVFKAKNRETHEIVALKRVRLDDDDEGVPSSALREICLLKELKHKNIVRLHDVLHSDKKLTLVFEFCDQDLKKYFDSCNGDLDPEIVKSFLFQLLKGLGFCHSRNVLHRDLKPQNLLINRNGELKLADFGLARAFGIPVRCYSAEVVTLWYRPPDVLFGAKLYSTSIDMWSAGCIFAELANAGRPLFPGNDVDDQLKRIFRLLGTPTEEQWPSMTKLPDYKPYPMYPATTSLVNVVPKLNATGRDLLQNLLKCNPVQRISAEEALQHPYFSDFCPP
Chain of MSK1/RPS6KA5 (O75582 whole entry): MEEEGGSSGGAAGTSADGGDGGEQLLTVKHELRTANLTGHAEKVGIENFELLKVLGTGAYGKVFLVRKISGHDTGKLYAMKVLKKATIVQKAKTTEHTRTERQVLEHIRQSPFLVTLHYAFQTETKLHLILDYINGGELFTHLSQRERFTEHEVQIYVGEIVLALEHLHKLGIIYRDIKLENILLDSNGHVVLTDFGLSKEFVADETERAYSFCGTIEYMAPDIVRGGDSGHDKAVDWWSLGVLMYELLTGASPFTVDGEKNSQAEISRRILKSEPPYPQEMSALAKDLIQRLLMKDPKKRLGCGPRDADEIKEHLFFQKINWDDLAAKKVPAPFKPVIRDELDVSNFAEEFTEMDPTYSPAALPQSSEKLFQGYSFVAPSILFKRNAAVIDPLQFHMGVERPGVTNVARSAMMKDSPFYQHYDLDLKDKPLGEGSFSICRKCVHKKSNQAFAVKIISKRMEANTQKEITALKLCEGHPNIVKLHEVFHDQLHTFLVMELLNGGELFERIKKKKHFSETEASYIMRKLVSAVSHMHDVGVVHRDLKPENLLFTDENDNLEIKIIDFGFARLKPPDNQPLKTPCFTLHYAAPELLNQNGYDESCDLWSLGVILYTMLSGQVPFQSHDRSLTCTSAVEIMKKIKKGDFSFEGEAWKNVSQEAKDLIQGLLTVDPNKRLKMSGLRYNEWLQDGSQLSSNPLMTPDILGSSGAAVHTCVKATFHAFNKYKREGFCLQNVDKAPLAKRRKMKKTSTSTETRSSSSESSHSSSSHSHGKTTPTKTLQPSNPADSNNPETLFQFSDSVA
Chain of RIPK2 (O43353 whole entry): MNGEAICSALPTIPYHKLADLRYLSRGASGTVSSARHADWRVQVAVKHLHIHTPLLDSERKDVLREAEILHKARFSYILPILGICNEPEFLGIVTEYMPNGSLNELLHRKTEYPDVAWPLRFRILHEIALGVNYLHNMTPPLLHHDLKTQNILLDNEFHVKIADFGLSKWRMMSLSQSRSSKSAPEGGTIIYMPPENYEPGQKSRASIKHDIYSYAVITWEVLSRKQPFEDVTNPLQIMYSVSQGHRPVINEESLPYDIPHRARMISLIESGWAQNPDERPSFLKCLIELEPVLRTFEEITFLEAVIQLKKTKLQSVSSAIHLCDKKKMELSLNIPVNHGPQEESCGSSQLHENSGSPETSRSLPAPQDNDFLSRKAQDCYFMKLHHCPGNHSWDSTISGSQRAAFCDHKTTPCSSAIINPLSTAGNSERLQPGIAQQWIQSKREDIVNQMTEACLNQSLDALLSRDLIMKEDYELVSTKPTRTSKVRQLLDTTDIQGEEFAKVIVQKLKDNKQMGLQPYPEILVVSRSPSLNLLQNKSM
Chain of ABL2/ARG (P42684 whole entry): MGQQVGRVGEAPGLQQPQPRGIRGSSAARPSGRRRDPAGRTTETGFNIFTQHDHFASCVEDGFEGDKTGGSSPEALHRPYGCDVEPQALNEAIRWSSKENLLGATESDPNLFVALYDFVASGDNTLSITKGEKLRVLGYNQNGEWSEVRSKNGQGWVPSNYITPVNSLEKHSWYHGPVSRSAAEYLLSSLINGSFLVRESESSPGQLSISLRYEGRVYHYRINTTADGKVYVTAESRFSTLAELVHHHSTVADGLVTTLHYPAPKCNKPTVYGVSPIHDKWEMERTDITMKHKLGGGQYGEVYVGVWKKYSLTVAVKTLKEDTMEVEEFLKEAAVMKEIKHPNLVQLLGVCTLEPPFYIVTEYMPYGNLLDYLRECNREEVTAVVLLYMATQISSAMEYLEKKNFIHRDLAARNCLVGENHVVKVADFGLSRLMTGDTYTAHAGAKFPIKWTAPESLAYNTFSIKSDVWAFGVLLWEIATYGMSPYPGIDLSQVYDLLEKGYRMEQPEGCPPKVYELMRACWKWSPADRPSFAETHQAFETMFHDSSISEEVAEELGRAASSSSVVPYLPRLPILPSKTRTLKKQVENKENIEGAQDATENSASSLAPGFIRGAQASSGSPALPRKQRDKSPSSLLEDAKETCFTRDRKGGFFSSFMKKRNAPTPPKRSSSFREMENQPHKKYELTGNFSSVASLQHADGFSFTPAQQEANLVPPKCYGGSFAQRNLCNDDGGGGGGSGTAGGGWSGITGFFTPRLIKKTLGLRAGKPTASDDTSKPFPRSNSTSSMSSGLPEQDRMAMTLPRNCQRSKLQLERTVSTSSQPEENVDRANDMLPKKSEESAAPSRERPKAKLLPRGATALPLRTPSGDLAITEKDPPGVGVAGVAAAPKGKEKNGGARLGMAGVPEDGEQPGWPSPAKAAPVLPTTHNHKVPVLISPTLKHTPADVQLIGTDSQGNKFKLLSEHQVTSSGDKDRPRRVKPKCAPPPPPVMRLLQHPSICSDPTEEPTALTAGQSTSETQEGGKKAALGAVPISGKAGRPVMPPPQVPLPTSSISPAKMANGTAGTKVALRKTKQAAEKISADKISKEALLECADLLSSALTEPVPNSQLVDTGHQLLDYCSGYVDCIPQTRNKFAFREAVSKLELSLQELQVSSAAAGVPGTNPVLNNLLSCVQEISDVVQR
Chain of GSK3B (P49841 whole entry): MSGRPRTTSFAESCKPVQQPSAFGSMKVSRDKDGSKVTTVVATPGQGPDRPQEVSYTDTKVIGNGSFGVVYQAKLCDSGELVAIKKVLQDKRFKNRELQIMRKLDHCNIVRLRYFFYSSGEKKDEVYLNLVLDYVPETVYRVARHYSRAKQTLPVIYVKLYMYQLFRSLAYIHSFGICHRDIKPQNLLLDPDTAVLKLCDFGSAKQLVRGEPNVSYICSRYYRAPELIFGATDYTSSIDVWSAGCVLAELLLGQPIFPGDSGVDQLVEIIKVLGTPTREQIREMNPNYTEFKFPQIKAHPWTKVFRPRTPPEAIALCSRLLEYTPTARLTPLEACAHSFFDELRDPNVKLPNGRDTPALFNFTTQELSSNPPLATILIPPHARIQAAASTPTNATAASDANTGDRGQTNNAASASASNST
Chain of YES/YES1 (P07947 whole entry): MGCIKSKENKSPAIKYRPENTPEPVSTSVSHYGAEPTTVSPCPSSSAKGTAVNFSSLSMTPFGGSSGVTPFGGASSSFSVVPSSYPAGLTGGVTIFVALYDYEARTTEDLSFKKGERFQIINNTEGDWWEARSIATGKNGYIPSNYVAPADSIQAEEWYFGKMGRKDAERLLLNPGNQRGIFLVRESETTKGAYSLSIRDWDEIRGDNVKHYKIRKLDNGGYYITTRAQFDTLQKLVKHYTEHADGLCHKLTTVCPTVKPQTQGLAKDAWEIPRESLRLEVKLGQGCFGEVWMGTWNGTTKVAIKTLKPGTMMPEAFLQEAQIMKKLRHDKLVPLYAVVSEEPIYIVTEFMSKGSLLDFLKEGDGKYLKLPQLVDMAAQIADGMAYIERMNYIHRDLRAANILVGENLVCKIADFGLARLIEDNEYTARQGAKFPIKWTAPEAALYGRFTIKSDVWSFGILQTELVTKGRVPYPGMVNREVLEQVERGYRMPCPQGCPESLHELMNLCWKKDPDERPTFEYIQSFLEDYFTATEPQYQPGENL
Chain of CK1g3 (Q9Y6M4 whole entry): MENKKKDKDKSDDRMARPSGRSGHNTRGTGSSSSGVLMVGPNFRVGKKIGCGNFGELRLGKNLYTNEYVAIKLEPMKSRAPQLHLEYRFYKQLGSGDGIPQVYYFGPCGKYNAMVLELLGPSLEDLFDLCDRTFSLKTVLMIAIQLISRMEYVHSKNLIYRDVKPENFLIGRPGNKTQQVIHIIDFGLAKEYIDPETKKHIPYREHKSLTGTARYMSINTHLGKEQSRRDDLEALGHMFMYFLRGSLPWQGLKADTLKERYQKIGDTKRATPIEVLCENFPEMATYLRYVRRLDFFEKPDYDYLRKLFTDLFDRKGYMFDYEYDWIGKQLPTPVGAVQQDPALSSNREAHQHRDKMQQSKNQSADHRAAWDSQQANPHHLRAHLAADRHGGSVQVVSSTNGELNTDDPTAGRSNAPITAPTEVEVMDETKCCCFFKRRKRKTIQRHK

`Nc1ncc(-c2nc3ccccc3o2)c(-c2ccncc2)n1` [Comparative Compound 324, 5-(1,3-benzoxazol-2-yl)-4-(pyridine-4-yl)pyrimidin-2-amine] was tested, and the “% of remaining activity (relative to DMSO)” value ([1]; CK1d, 10 μM compound, duplicate, listed as Cmp 324) was 11.87%, the remaining activity at 10 µM ([1]; CK1d, 10 μM compound, duplicate, read-out: % of remaining activity (relative to DMSO)) was 13.3% and the pIC50 ([1]; casein kinase 1 delta, 10-dose, 3 fold serial dilution) was 6.32. For the same compound, the “% of remaining activity (relative to DMSO)” value (GSK3B; listed as Cmp 324) was 80.19%, the remaining activity at 10 µM (GSK3B; [2]) was 91.3% and the “% of remaining activity (relative to DMSO)” value (YES/YES1; listed as Cmp 324) was 95.22%. The remaining activity at 10 µM (YES/YES1; [2]) was 108%, the “% of remaining activity (relative to DMSO)” value (MSK1/RPS6KA5; listed as Cmp 324) was 94.78% and the remaining activity at 10 µM (MSK1/RPS6KA5; [2]) was 81.1%. For the same compound, the “% of remaining activity (relative to DMSO)” value (KDR/VEGFR2; listed as Cmp 324) was 100.01%, the remaining activity at 10 µM (KDR/VEGFR2; [2]) was 85.1% and the “% of remaining activity (relative to DMSO)” value (PDK1/PDPK1; listed as Cmp 324) was 104.88%. The remaining activity at 10 µM (PDK1/PDPK1; [2]) was 105%, the “% of remaining activity (relative to DMSO)” value (EPHA2; listed as Cmp 324) was 105.62% and the remaining activity at 10 µM (EPHA2; [2]) was 98.7%. The “% of remaining activity (relative to DMSO)” value (ABL2/ARG; listed as Cmp 324) was 96.78%, the remaining activity at 10 µM (ABL2/ARG; [2]) was 101% and the “% of remaining activity (relative to DMSO)” value (TNIK; listed as Cmp 324) was 65.72%. For the same compound, the remaining activity at 10 µM (TNIK; [2]) was 74.6%, the “% of remaining activity (relative to DMSO)” value (FGFR1; listed as Cmp 324) was 108.45% and the remaining activity at 10 µM (FGFR1; [2]) was 104%. For the same compound, the “% of remaining activity (relative to DMSO)” value (JNK2; listed as Cmp 324) was 91.75%, the remaining activity at 10 µM (JNK2; [2]) was 95.1% and the “% of remaining activity (relative to DMSO)” value (EGFR; listed as Cmp 324) was 79.83%. The remaining activity at 10 µM (EGFR; [2]) was 83.8%, the “% of remaining activity (relative to DMSO)” value (ALK5/TGFBR1; listed as Cmp 324) was 101.71% and the remaining activity at 10 µM (ALK5/TGFBR1; [2]) was 105%. For the same compound, the “% of remaining activity (relative to DMSO)” value (PKA; listed as Cmp 324) was 90.27%, the remaining activity at 10 µM (PKA; [2]) was 90.8% and the “% of remaining activity (relative to DMSO)” value (RIPK2; listed as Cmp 324) was 92.78%. The remaining activity at 10 µM (RIPK2; [2]) was 92.2%, the “% of remaining activity (relative to DMSO)” value (CLK2; listed as Cmp 324) was 92.16% and the remaining activity at 10 µM (CLK2; [2]) was 96.2%. The “% of remaining activity (relative to DMSO)” value (PIM3; listed as Cmp 324) was 95.35%, the remaining activity at 10 µM (PIM3; [2]) was 100% and the “% of remaining activity (relative to DMSO)” value (CDK5/p25; listed as Cmp 324) was 97.13%. The remaining activity at 10 µM (CDK5/p25; [2]) was 87.7%, the “% of remaining activity (relative to DMSO)” value (CK1g3; listed as Cmp 324) was 62.63% and the remaining activity at 10 µM (CK1g3; [2]) was 69.9%. For the same compound, the “% of remaining activity (relative to DMSO)” value (CK1a1; listed as Cmp 324) was 58.48% and the remaining activity at 10 µM (CK1a1; [2]) was 65.7%.
